The results in this text go back to patent publication US20250282796A1, “PENEM ANTIBACTERIALS AGAINST MYCOBACTERIAL PATHOGENS AND D,D- AND L,D TRANSPEPTIDASES” (The Johns Hopkins University, priority 2022, published 2025).

The test system of one experiment is Mtb H37Rv. Nature of the experiment: MIC broth microdilution assay against Mtb H37Rv (with and without clavulanate). It counts as cell-based, Mycobacterium tuberculosis. As to conditions: for MIC: Mycobacterium tuberculosis, H37RV, 336 h, read-out: MIC Mtb H37Rv; for increase of MIC relative to T405: Mtb H37Rv without clavulanate. (In general: In broth dilution the organism is exposed to a series of concentrations in liquid medium.)

The test system of a further experiment is Mab ATCC 19977. The experiment in a line: MIC broth microdilution assay against Mab ATCC 19977. As to conditions: for MIC: Mycobacteroides abscessus, read-out: MIC Mab ATCC 19977. The format is cell-based, Mycobacteroides abscessus.
For a further experiment, the target named is T1, LdtMt2 (Mycobacterium tuberculosis, UniProt I6Y9J2).
T1 construct: made in house
The experiment in a line: LdtMt2 adduct formation by intact-protein UPLC-HRMS. The settings on record: penem 20 μM, 1 h, 25 mM HEPES pH 7.0, 20° C. The format is binding.

For a further experiment, the target named is T2, DacB2 (Mycobacterium tuberculosis, UniProt I6Y204).
T2 construct: made in house
The experiment in a line: DacB2 adduct formation and stability comparison by intact-protein UPLC-HRMS. The settings on record: for DacB2 adduct formation: 20 μM drug, 1 h. It counts as binding.

The mark [1] stands for this setting: without clavulanate, Middlebrook 7H9, 37° C., 14 d.
The mark [2] stands for this setting: ATCC19977, Middlebrook 7H9, 30° C., 72 h.
[3] abbreviates: 24 h after removal of free drug, 20° C.

Converted amounts (≈) assume the structure as drawn. “Also recorded” adds a separate entry of the source. Where two headings read alike, the source gives them in different places.

T1 sequence (I6Y9J2 56-408): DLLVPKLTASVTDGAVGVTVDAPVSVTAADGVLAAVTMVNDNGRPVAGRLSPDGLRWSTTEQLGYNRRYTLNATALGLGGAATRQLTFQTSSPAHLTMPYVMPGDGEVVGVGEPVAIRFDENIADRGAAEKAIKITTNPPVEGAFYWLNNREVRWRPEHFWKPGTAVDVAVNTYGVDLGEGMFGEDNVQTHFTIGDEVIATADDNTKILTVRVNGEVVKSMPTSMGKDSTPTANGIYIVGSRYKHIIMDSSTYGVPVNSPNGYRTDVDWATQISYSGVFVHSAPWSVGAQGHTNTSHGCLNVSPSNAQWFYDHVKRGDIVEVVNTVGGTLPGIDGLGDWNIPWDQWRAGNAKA
T2 sequence (I6Y204 28-291): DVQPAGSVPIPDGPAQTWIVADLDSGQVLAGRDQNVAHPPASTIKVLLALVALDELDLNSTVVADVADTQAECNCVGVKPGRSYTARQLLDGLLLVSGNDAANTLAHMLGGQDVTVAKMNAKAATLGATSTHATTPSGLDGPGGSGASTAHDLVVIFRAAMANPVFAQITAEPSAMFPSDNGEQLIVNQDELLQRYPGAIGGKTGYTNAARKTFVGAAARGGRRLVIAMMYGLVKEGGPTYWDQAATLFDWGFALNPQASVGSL

Usually MIC stands for the least concentration at which growth counts as inhibited. As for `C[C@@H](O)[C@H]1C(=O)N2C(C(=O)O)=C(SC3CNC3)S[C@H]12` [Compound T422, (5R,6S)-3-(azctidin-3-ylthio)-6-((R)-1-hydroxyethyl)-7-oxo-4-thia-1-azabicyclo[3.2.0]hept-2-ene-2-carboxylic acid], the minimal inhibitory concentration (MIC) with Mtb H37Rv turned out to be 0.5 µg/mL; in the experiment on Mab ATCC 19977 (ATCC19977, 72 h), 4 µg/mL (≈ 13.2 µM). Further, in the experiment on Mtb H37Rv (Middlebrook 7H9, 37° C., 14 d), the “MIC Mtb H37Rv with Clavulanate (5 μg/ml)” value is 0.5 µg/mL. Further, the “weaker activity (MIC) relative to T405” value in the experiment on Mab ATCC 19977 (Mab ATCC 19977) is given as 2 fold.

For `C[C@@H](O)[C@H]1C(=O)N2C(C(=O)O)=C(S[C@@H]3CCN(C4CCOCC4)C3)S[C@H]12` [Compound T432, (5R,6S)-6-((R)-1-hydroxyethyl)-7-oxo-3-(((R)-1-(tetrahydro-2H-pyran-4-yl)pyrrolidin-3-yl)thio)-4-thia-1-azabicyclo[3.2.0]hept-2-ene-2-carboxylic acid], the MIC was 4 µg/mL in the experiment on Mtb H37Rv (setting [1]) and 4 µg/mL (≈ 9.99 µM) with Mab ATCC 19977 (setting [2]).

For the compound `C[C@@H](O)[C@H]1C(=O)N2C(C(=O)O)=C(SC3CN(c4nc5ccccc5n4C)C3)S[C@H]12` [Compound T418, (5R,6S)-6-((R)-1-hydroxyethyl)-3-((1-(1-methyl-1H-benzo[d]imidazol-2-yl)azetidin-3-yl)thio)-7-oxo-4-thia-1-azabicyclo[3.2.0]hept-2-ene-2-carboxylic acid], the “increase of MIC relative to T405” value in the experiment on Mtb H37Rv is recorded as “four-fold”. For the same compound, the MIC with Mtb H37Rv (setting [1]) was 2 µg/mL; with Mab ATCC 19977 (setting [2]), 64 µg/mL (≈ 148 µM). Further, the “MIC Mtb H37Rv with Clavulanate (5 μg/ml)” value with Mtb H37Rv (Middlebrook 7H9, 37° C., 14 d) amounted to 0.5 µg/mL.

For `CCN1CC(SC2=C(C(=O)O)N3C(=O)[C@H]([C@@H](C)O)[C@H]3S2)C1` [Compound T421, (5R,6S)-3-((1-ethylazetidin-3-yl)thio)-6-((R)-1-hydroxyethyl)-7-oxo-4-thia-1-azabicyclo[3.2.0]hept-2-ene-2-carboxylic acid], the minimal inhibitory concentration (MIC) stood at 1 µg/mL in the experiment with Mtb H37Rv (setting [1]) and 4 µg/mL (≈ 12.1 µM) in the experiment on Mab ATCC 19977 (setting [2]). The “MIC Mtb H37Rv with Clavulanate (5 μg/ml)” value with Mtb H37Rv (Middlebrook 7H9, 37° C., 14 d) came out at 0.5 µg/mL.

On to `C[C@@H](O)[C@H]1C(=O)N2C(C(=O)O)=C(SC3CN(C4=NCCCS4)C3)S[C@H]12` [Compound T420, (5R,6S)-3-((1-(5,6-dihydro-4H-1,3-thiazin-2-yl)azetidin-3-yl)thio)-6-((R)-1-hydroxyethyl)-7-oxo-4-thia-1-azabicyclo[3.2.0]hept-2-ene-2-carboxylic acid], for which, in the experiment on Mtb H37Rv, the “increase of MIC relative to T405” value is recorded as “two dilutions”. For the same compound, the minimum inhibitory concentration (MIC) in the experiment with Mtb H37Rv (setting [1]) was 2 µg/mL; in the experiment with Mab ATCC 19977 (setting [2]) it was 16 µg/mL (≈ 39.8 µM). In the experiment on Mtb H37Rv (Middlebrook 7H9, 37° C., 14 d), the “MIC Mtb H37Rv with Clavulanate (5 μg/ml)” value came out at 0.5 µg/mL.

On to `C[C@@H](O)[C@H]1C(=O)N2C(C(=O)O)=C(SC3CN(C4CCOCC4)C3)S[C@H]12` [Compound T430, (5R,6S)-6-((R)-1-hydroxyethyl)-7-oxo-3-((1-(tetrahydro-2H-pyran-4-yl)azetidin-3-yl)thio)-4-thia-1-azabicyclo[3.2.0]hept-2-ene-2-carboxylic acid], for which the minimum inhibitory concentration (MIC) came out at 4 µg/mL in the experiment with Mtb H37Rv (setting [1]) and 4 µg/mL (≈ 10.3 µM) in the experiment with Mab ATCC 19977 (setting [2]).

As for `C[C@@H](O)[C@H]1C(=O)N2C(C(=O)O)=C(SCC3CNC3)S[C@H]12` [Compound T428, (5R,6S)-3-((azetidin-3-ylmethyl)thio)-6-((R)-1-hydroxyethyl)-7-oxo-4-thia-1-azabicyclo[3.2.0]hept-2-ene-2-carboxylic acid], the MIC in the experiment with Mtb H37Rv (setting [1]) was determined as 0.5 µg/mL; in the experiment on Mab ATCC 19977 (setting [2]), 8 µg/mL (≈ 25.3 µM). In addition, the “MIC Mtb H37Rv with Clavulanate (5 μg/ml)” value in the experiment on Mtb H37Rv (Middlebrook 7H9, 37° C., 14 d) amounted to 0.25 µg/mL. On LdtMt2, the “covalent LdtMt2 adduct formed” value is recorded as “formed a +86 Da LdtMt2 adduct; also recorded: fragmentation to a M+86 Da 3-hydroxybutyryl group”. Besides, the DacB2 adduct formation entry on DacB2 (20° C., pH 7.0) is on record as “formed intact adducts”. Also, the “DacB2 adduct stability (in words)” value on DacB2 (setting [3]) is “partially hydrolyzed”. Further, the “inhibitor retained on DacB2 (percent bound)” value at DacB2 (24 h after removal of free drug, 20° C., pH 7.0) was 86%. Also, the “loss of drug from DacB2 adduct” value on DacB2 (24 h after washing away free drug) was determined as 14%.

Consider `C[C@@H](O)[C@H]1C(=O)N2C(C(=O)O)=C(S[C@@H]3CN[C@H](C(=O)N(C)C)C3)[C@H](C)[C@H]12` [Meropenem, reference compound], for which, in the experiment with Mtb H37Rv (setting [1]), the minimum inhibitory concentration (MIC) worked out at 8 µg/mL and the “MIC Mtb H37Rv” value worked out at 8 µg/mL. The “MIC Mtb H37Rv with Clavulanate (5 μg/ml)” value with Mtb H37Rv (Middlebrook 7H9, 37° C., 14 d) is 0.5 µg/mL. The DacB2 adduct formation result on DacB2 (20° C., pH 7.0) is reported as “fully reacts with DacB2”. In addition, the “DacB2 adduct stability (in words)” value at DacB2 (setting [3]) is recorded as “stable after removal of drug for 24 h”. In addition, the “DacB2 adduct stability (in words)” value on DacB2 (24 h after removal of free drug, 20° C., listed as meropenem) is listed as “remained completely bound; also recorded: fully bound”.

For `C[C@@H](O)[C@H]1C(=O)N2C(C(=O)O)=C(SC3CCNCC3)S[C@H]12` [Compound T427, (5R,6S)-6-((R)-1-hydroxyethyl)-7-oxo-3-(piperidin-4-ylthio)-4-thia-1-azabicyclo[3.2.0]hept-2-ene-2-carboxylic acid], in the experiment on Mtb H37Rv, the “increase of MIC relative to T405” value is listed as “two-fold” and the MIC stood at 1 µg/mL. Besides, the “MIC Mtb H37Rv with Clavulanate (5 μg/ml)” value with Mtb H37Rv (Middlebrook 7H9, 37° C., 14 d) was found to be 0.5 µg/mL. The minimal inhibitory concentration (MIC) in the experiment with Mab ATCC 19977 (ATCC19977, 72 h) is 4 µg/mL (≈ 12.1 µM).

For the compound `C[C@@H](O)[C@H]1C(=O)N2C(C(=O)O)=C(SC3CN(c4nc5ccccc5s4)C3)S[C@H]12` [Compound T423, (5R,6S)-3-((1-(benzo[d]thiazol-2-yl)azetidin-3-yl)thio)-6-((R)-1-hydroxyethyl)-7-oxo-4-thia-1-azabicyclo[3.2.0]hept-2-ene-2-carboxylic acid], in the experiment on Mtb H37Rv, the “increase of MIC relative to T405” value worked out at 16 fold. Further, the MIC is 8 µg/mL in the experiment on Mtb H37Rv (setting [1]) and 64 µg/mL (≈ 147 µM) in the experiment with Mab ATCC 19977 (setting [2]). Also, in the experiment on Mtb H37Rv (Middlebrook 7H9, 37° C., 14 d), the “MIC Mtb H37Rv with Clavulanate (5 μg/ml)” value was 2 µg/mL.

Regarding `C[C@@H](O)[C@H]1C(=O)N2C(C(=O)O)=C(SCCN=CN)C[C@H]12` [Imipenem, reference compound], the “MIC Mab ATCC 19977” value against Mab ATCC 19977 (Middlebrook 7H9, 30° C., 72 h) came out at 8 µg/mL (≈ 26.7 µM). In addition, in the experiment with Mab ATCC 19977 (setting [2]), the MIC is 8 µg/mL (≈ 26.7 µM).

Take `C[C@@H](O)[C@H]1C(=O)N2C(C(=O)O)=C(SCC3CCNCC3)S[C@H]12` [Compound T429, (5R,6S)-6-((R)-1-hydroxyethyl)-7-oxo-3-((piperidin-4-ylmethyl)thio)-4-thia-1-azabicyclo[3.2.0]hept-2-ene-2-carboxylic acid]: the minimum inhibitory concentration (MIC) in the experiment on Mtb H37Rv (setting [1]) is 0.5 µg/mL; in the experiment on Mab ATCC 19977 (setting [2]), 4 µg/mL (≈ 11.6 µM). Besides, the “MIC Mtb H37Rv with Clavulanate (5 μg/ml)” value with Mtb H37Rv (Middlebrook 7H9, 37° C., 14 d) was found to be 0.25 µg/mL.

For the compound `C[C@@H](O)[C@H]1C(=O)N2C(C(=O)O)=C(S[C@@H]3CCNC3)S[C@H]12` [Compound T425, (5R,6S)-6-((R)-1-hydroxyethyl)-7-oxo-3-(((R)-pyrrolidin-3-yl)thio)-4-thia-1-azabicyclo[3.2.0]hept-2-ene-2-carboxylic acid], the MIC in the experiment on Mtb H37Rv (setting [1]) came out at 0.5 µg/mL; in the experiment with Mab ATCC 19977 (setting [2]), 2 µg/mL (≈ 6.32 µM). For the same compound, in the experiment on Mtb H37Rv (Middlebrook 7H9, 37° C., 14 d), the “MIC Mtb H37Rv with Clavulanate (5 μg/ml)” value was found to be 0.25 µg/mL. The compound also returned an MIC against Mab in the experiment with Mab ATCC 19977 (Mab ATCC 19977) of 1 µg/mL (≈ 3.16 µM).

With `CCN1CC[C@@H](SC2=C(C(=O)O)N3C(=O)[C@H]([C@@H](C)O)[C@H]3S2)C1` [Compound T431, (5R,6S)-3-(((R)-1-ethylpyrrolidin-3-yl)thio)-6-((R)-1-hydroxyethyl)-7-oxo-4-thia-1-azabicyclo[3.2.0]hept-2-ene-2-carboxylic acid], the MIC in the experiment on Mtb H37Rv (setting [1]) came out at 4 µg/mL; in the experiment on Mab ATCC 19977 (setting [2]), 4 µg/mL (≈ 11.6 µM).

In the case of `C[C@@H](O)[C@H]1C(=O)N2C(C(=O)O)=C(S[C@H]3CCNC3)S[C@H]12` [Compound T426, (5R,6S)-6-((R)-1-hydroxyethyl)-7-oxo-3-(((S)-pyrrolidin-3-yl)thio)-4-thia-1-azabicyclo[3.2.0]hept-2-ene-2-carboxylic acid], the MIC in the experiment with Mtb H37Rv (setting [1]) came to 0.5 µg/mL; with Mab ATCC 19977 (setting [2]), 2 µg/mL (≈ 6.32 µM). Further, the “MIC Mtb H37Rv with Clavulanate (5 μg/ml)” value in the experiment on Mtb H37Rv (Middlebrook 7H9, 37° C., 14 d) was determined as 0.25 µg/mL. For the same compound, the MIC against Mab against Mab ATCC 19977 (Mab ATCC 19977) is 1 µg/mL (≈ 3.16 µM). Moreover, the “covalent LdtMt2 adduct formed” value at LdtMt2 is “formed a +86 Da LdtMt2 adduct; also recorded: fragmentation to a M+86 Da 3-hydroxybutyryl group”. Further, the DacB2 adduct formation entry on DacB2 (20° C., pH 7.0) is reported as “formed intact adducts”. In addition, the “DacB2 adduct stability (in words)” value on DacB2 (setting [3]) is given as “remained completely bound; also recorded: fully bound; also recorded: stable for at least 24 h after drug removal”.
